According to ChEMBL document CHEMBL4828751, “Discovery of novel tubulin/HDAC dual-targeting inhibitors with strong antitumor and antiangiogenic potency” (Eur J Med Chem, 2021):
Activity calls are given as the source filed them. The rule behind the calls is not given here.

Legend:
U-937 = test: Antiproliferative activity against human U-937 cells assessed as cell growth inhibition after 72 hrs by CCK8 assay; type: functional, cell-based; details: U-937, 72 h
MGC-803 [1] = test: Antiproliferative activity against human MGC-803 cells assessed as cell growth inhibition after 72 hrs by SRB assay; type: functional, cell-based; details: MGC-803, 72 h
HeLa = test: Antiproliferative activity against human HeLa cells assessed as cell growth inhibition after 72 hrs by SRB assay; type: functional, cell-based
MGC-803 [2] = test: Induction of cell cycle arrest in human MGC-803 cells assessed as accumulation at G2/M phase at 2 nM incubated for 24 hrs by propidium iodide staining based flow cytometry (reference value: 28.59 %); type: functional
MGC-803 [3] = test: Induction of cell cycle arrest in human MGC-803 cells assessed as accumulation at S phase at 2 nM incubated for 24 hrs by propidium iodide staining based flow cytometry (Rvb =31.51 %); type: functional
MGC-803 [4] = test: Induction of cell cycle arrest in human MGC-803 cells assessed as accumulation at G1 phase at 2 nM incubated for 24 hrs by propidium iodide staining based flow cytometry (Rvb =39.64 %); type: functional
MGC-803 [5] = test: Induction of apoptosis in human MGC-803 cells assessed as early apoptotic cells at 2 nM measured after 48 hrs by Annexin V-APC/PI double staining based flow cytometry assay (reference value: 2.42 %); type: functional, cell-based
MGC-803 [6] = test: Induction of apoptosis in human MGC-803 cells assessed as late apoptotic cells at 2 nM measured after 48 hrs by Annexin V-APC/PI double staining based flow cytometry assay (reference value: 3.62 %); type: functional, cell-based
MGC-803 [7] = test: Induction of apoptosis in human MGC-803 cells assessed as necrotic cells at 2 nM measured after 48 hrs by Annexin V-APC/PI double staining based flow cytometry assay (reference value: 0.44%); type: functional, cell-based
MGC-803 [8] = test: Induction of apoptosis in human MGC-803 cells assessed as viable cells at 2 nM measured after 48 hrs by Annexin V-APC/PI double staining based flow cytometry assay (Rvb =93.5 %); type: functional, cell-based

COc1ccc(/C=C\c2cc(OC)c(OC)c(OC)c2)cc1O [COMBRETASTATIN A4]
IC50 (U-937): 1 nM | IC50 (MGC-803 [1]): 2 nM | IC50 (HeLa): 9 nM | Activity (MGC-803 [2]): Dose-Dependent Effect | Activity (MGC-803 [2]; record 2): 28.25% | Activity (MGC-803 [3]): 31.58% | Activity (MGC-803 [4]): 40.88% | Activity (MGC-803 [5]): Active | Activity (MGC-803 [6]): Active | Activity (MGC-803 [7]): Active | Activity (MGC-803 [8]): Active
